Data taken from article PMC6009097, “Design and biological characterization of novel cell-penetrating peptides preferentially targeting cell nuclei and subnuclear regions” (Beilstein Journal of Organic Chemistry, 2018).

Key:
Type in all cases: cell-based
MCF-7 cells [1] = assay: Doxorubicin uptake on co-administration, fluorescence microscopy; details: MCF-7, DOX 10 µg/mL, 30 min, 37 °C
Method: (§1) Doxorubicin is known to be fluorescent and this property was used to test if the peptides were able to enhance the intracellular uptake of the drug. Therefore, solutions out of DOX and the sequences N50-sC18* and NrTP-sC18* were incubated with HeLa and MCF-7 cells, respectively, and observed for red fluorescence afterwards (Figure 7A and 7B).
(§2) Figure 7 Uptake and delivery of DOX into HeLa and MCF-7 cells. Fluorescence microscopic images after 30 min incubation in HeLa (A) and MCF-7 (B) cells with 10 μM CF-labeled peptides N50-sC18* or NrTP-sC18* co-incubated with 10 μg/mL doxorubicin at 37 °C, respectively. Cells treated with DOX alone served as negative control; Green: CF-labeled peptide; blue: Hoechst 33342 nuclear stain; red: doxorubicin; scale bar is 10 µm. (C) Cells were incubated for 48 h with DOX (1 µg/mL), or solutions out of peptides (10 µM) and DOX (1 µg/mL), or peptide solutions (10 µM) alone. Untreated cells served as negative control, cells treated for 10 min with 70% ethanol as positive control. Experiments were conducted in triplicate with n = 2.
(§3) Cells were seeded in 350 μL medium in an 8-well ibidi plate (HeLa 45,000, MCF-7 70,000 cells per well) and were grown to 70–80% confluency. […] After adding 300 μL of fresh medium, pictures were taken using a fluorescence confocal microscope. […]

HeLa cells = assay: as above; details: DOX 10 µg/mL, 30 min, 37 °C
Method: as §1, §2, §3

MCF-7 cells [2] = assay: Cytotoxicity of doxorubicin co-incubated with peptides (resazurin viability assay); details: MCF-7, DOX 1 μg/mL, 48 h, triplicate with n = 2
Method: as §2, with “Fluorescence” for “Figure 7 Uptake and delivery of DOX into HeLa and MCF-7 cells. Fluorescence”
Herein, the drug alone (1 μg/mL) or in presence of 10 μM solutions of the peptides sC18*, N50-sC18* and NrTP-sC18*, respectively, were incubated for 48 h with MCF-7 cells.
A total volume of 200 μL of cells (HeLa 40’000, MCF-7 50’000 cells per well) were seeded in 96-well plates and grown to 70–80% confluency. Afterwards, they were incubated with peptide or doxorubicin solutions (diluted in serum-free medium) in a total volume of 100 μL. In the wells that served as positive and negative controls, the medium was replaced by fresh medium without FBS. The plates were incubated for 24 h or 48 h at 37 °C. Afterwards, the positive control was treated with 100 μL of 70% EtOH for 10 min, and then all cells were washed with PBS. Cells were covered with 100 μL of a 10% resazurin solution in medium without FBS and incubated for 1–2 h at 37 °C. Afterwards, fluorescence was quantified by using a Tecan infinite M200 plate reader (excitation: 550 nm, emission: 595 nm).
Experiments were done in triplicate.

`COc1cccc2c1C(=O)c1c(O)c3c(c(O)c1C2=O)C[C@@](O)(C(=O)CO)C[C@@H]3O[C@H]1C[C@H](N)[C@H](O)[C@H](C)O1` [doxorubicin] was tested, and the “red fluorescence of DOX in cells, DOX only” value (MCF-7 cells [1]) was “Minor red fluorescence”, the “red fluorescence of DOX in cells, DOX only” value (HeLa cells) was “Minor red fluorescence” and the “amount of viable cells, doxorubicin alone” value (MCF-7 cells [2]) was “about 60%”.
